Patent publication EP0389368B1, “New derivatives of 6-(1-piperazinyl) 2,5-pyridine diamine N,N,N',N'-substituted, procedure for their production and intermediates, their use as medicines and pharmaceutical preparations containing them” (priority 1989, dated 1990)

Tests used:
[1] = tested on: oedème plantaire provoqué par l'acide arachidonique; experiment: Arachidonic acid-induced paw oedema test (anti-oedema activity); type: in vivo, rats mâles EOPS de souche Sprague Dawley; conditions: rat; for Variation de volume de la patte 1 heure après AA: ** p < 0,01 (Dunnett)
Excerpt: L'activité anti-inflammatoire est évaluée in vivo par mesure de l'activité anti-oedémateuse à l'aide du test de l'oedème plantaire provoqué par l'acide arachidonique décrit par M.J. Di Martino et al. (Agents and Actions 1987 21 3/4 303).
Les animaux d'expérimentation sont des rats mâles EOPS de souche Sprague Dawley pesant 150-170 g (Iffa Credo).
Ce test est pratiqué sur des groupes de 8 rats mâles pesant 130 à 150 g à jeun depuis 16 heures. L'acide arachidonique est injecté sous l'aponévrose plantaire d'une patte postérieure à la dose de 0,2 mg sous un volume de 0,1 ml. Le volume de la patte est mesuré à l'aide d'un pléthysmomètre à eau, avant et 1 heure après l'injection de l'acide arachidonique. La différence entre ces deux volumes représente le degré d'inflammation. Les animaux sont traités par les produits à étudier ou le véhicule seul en même temps que l'injection de l'acide arachidonique.
Les produits étudiés ont été administrés par voie orale sous un volume de 4 ml/kg après avoir été mis en suspension dans la méthylcellulose à 0,5%. Toutes les expériences ont été réalisées avec comme produit de référence la dexaméthasone à la dose de 0,5 mg/kg par voie orale.
Les résultats sont exprimés en variation de volume de la patte 1 heure après l'injection d'acide arachidonique (AA), en absence ou en présence du produit à tester administré à différentes doses.
L'interprétation statistique des résultats a été effectuée selon le test de Dunnett (* p < 0,05 - ** p < 0,01) ou selon le test de Mann Whitney (° p < 0,05 - °° p < 0,01).
Pour chaque dose administrée par voie orale, on calcule le pourcentage d'inhibition de l'oedème par le produit testé, par rapport au témoin.

[2] = tested on: péroxydation lipidique; experiment: MDA formation test, enzymatic lipid peroxidation triggered by NADPH and carbon tetrachloride in liver microsomes of phenobarbital-pretreated rats; type: biochemical; conditions: rat liver microsomes (phenobarbital-pretreated), NADPH + CCl4, 15 min 37°C
Excerpt: (§1) L'activité antioxydante est recherchée, in vitro, par le test de formation de la malonyldialdéhyde (MDA) qui mesure la péroxydation lipidique déclenchée : soit a) de façon non enzymatique par le sulfate ferreux, dans • 1) des homogénats de cerveau ou • 2) des microsomes hépatiques de rat soit b) de façon enzymatique par NADPH et le tétrachlorure de carbone, dans des microsomes hépatiques de rat. 1.1 : La formation de MDA est mesurée sur des homogénats au 1/10^e (V/V) de cerveaux de rat S.D (200 g) préparés dans un tampon de Krebs pH 7,4 selon les conditions décrites dans J. Biol. Chem. 262 (1987) 10438-10440. On incube 1 ml d'homogénat pendant 60 mn à 37°C en présence de 25 microlitres d'éthanol contenant ou non le produit à tester, après addition de 25 microlitres de solution de sulfate ferreux préparée extemporanément dans de l'eau dégazée à l'argon (200 micromoles final). On prélève 0,25 ml de mélange incubé et ajoute 1,5 ml d'acide phosphorique à 1 %, 0,25 ml de solution 200 micromoles de déféroxamine (Desféral^R Ciba Geigy) dans l'eau, 10 microlitres de tert-butylhydroxytoluène (BHT) à 8,7 mg/ml dans l'éthanol et 0,5 ml d'acide thiobarbiturique (TBA) à 0,6 % dans l'eau. On chauffe le mélange à 100°C pendant 45 mn, refroidit, ajoute 4 ml de n-butanol, centrifuge pendant 15 mn à 4000 t/mn puis lit la DO à 535 nm de la fraction surnageante. On incube dans les mêmes conditions les blancs de réaction en absence de Fe++. On calcule le pourcentage d'inhibition : pourcentage d'inhibition =(DO en présence de produit)/(DO en absence de produit) [formula] Résultats :
2 : La formation de MDA est mesurée sur des microsomes hépatiques de rats prétraités au phénobarbital (80 mg/kg par 3 injections i.p), préparés comme décrit précédemment. On incube les microsomes pendant 15 mn à 37°C dans 1 ml contenant du tampon phosphate 0,1 M pH 7,4, 1 mg de protéine microsomale, 5 microlitres d'éthanol renfermant ou non le produit à tester, 5 microlitres de tétrachlorure de carbone (5,5 mM final) après l'addition de 50 microlitres de solution de NADPH dans le tampon phosphate (1 mM final). On arrête la réaction puis effectue le dosage selon les conditions décrites précédemment.

[3] = tested on: péroxydation lipidique; experiment: MDA formation test, non-enzymatic lipid peroxidation triggered by ferrous sulfate/ascorbate in rat liver microsomes; type: biochemical, rat S.D; conditions: FeSO4/ascorbate, 15 min 37°C
Excerpt: as §1
1.2 : La formation de MDA est mesurée sur des microsomes hépatiques de rat S.D (200 g) préparés à partir de la fraction sédimentée à 100.000 g d'un homogénat de foie dans un tampon sucrose dont on utilise la fraction restant insoluble à 100.000 g dans un tampon de pyrophosphate de sodium 100 mM pH 7,4 et que l'on homogénéise dans un tampon phosphate de sodium 100 mM pH 7,4 à 20 % de glycérol, puis que l'on conserve à -80°C. On incube les microsomes pendant 15 mn à 37°C dans 1 ml contenant du tampon Tris-HCl 35 mM, KCl 0,1 M pH 7,4, 1 mg de protéine microsomale, 5 microlitres d'éthanol renfermant ou non le produit à tester, 250 microlitres de solution d'ascorbate dans le tampon Tris (0,5 mM final), après l'addition de 250 microlitres de sulfate ferreux préparée extemporanément dans le tampon Tris (6 micromoles final). On arrête la réaction par addition de 2 ml d'une solution d'acide trichloracétique 1 M dans l'acide chlorhydrique 0,25 M contenant 0,4 % d'acide thiobarbiturique. On chauffe le mélange à 85°C pendant 25 mn, refroidit, centrifuge pendant 15 mn à 3500 t/mn puis lit la DO à 535 nm de la fraction surnageante. On effectue en même temps les blancs de réaction en absence de Fe++. On calcule le pourcentage d'inhibition comme précédemment.

[4] = tested on: péroxydation lipidique; experiment: MDA formation test, non-enzymatic lipid peroxidation triggered by ferrous sulfate in rat brain homogenates; type: biochemical, rat S.D; conditions: rat brain homogenate, FeSO4, 60 min 37°C
Excerpt: as §1, with “[formula]” for “[formula] Résultats :”

Compound	Variation de volume de la patte 1 heure après AA ([1]; dose 0,5 mg/kg oral)	Variation de volume de la patte 1 heure après AA ([1]; dose 1 mg/kg oral)	activité anti-inflammatoire ([1]; result in words, from the dose of 0,5 mg/kg oral)	pourcentage d'inhibition ([2]; 1.10^-5M, 10 µM) [pourcentage]	pourcentage d'inhibition ([2]; 1.10^-6M, 1 µM)	pourcentage d'inhibition ([2]; 5.10^-6M, 5 µM)	pourcentage d'inhibition ([3]; 1.10^-5M, 10 µM)	pourcentage d'inhibition ([3]; 1.10^-6M, 1 µM)	pourcentage d'inhibition ([3]; 5.10^-6M, 5 µM)	pourcentage d'inhibition ([4]; 1.10^-4M, 100 µM)	pourcentage d'inhibition ([4]; 1.10^-5M, 10 µM)	pourcentage d'inhibition ([4]; 5.10^-4M, 500 µM)	Variation de volume de la patte 1 heure après AA ([1]; dose 20 mg/kg oral)
CCN(CC)c1ccc(N(CC)CC)c(N2CCN(CC(=O)[C@H]3[C@H](C)C[C@H]4[C@@H]5CCC6=CC(=O)C=C[C@]6(C)C5=CC[C@@]43C)CC2)n1 [Produit de l'ex. 2, 21-[4-[3,6-bis(diéthylamino) 2-pyridyl] 1-pipérazinyl] 16alpha-méthyl pregna-1,4,9(11)-triène-3,20-dione]	0,32 ± 0,04** cm3	0,32 ± 0,01** cm3	forte activité	91 ± 1	49 ± 1,5 pourcentage	88 ± 1 pourcentage	99,8 pourcentage	42,0 ± 5 pourcentage	99,5 pourcentage	55,6 ± 1,3 pourcentage	63,8 ± 4,3 pourcentage	60,4 ± 4,4 pourcentage	–
CCN(CC)c1ccc(N(CC)CC)c(N2CCNCC2)n1 [Produit de l'ex. 1, N,N,N′,N′-tétraéthyl 6-(1-pipérazinyl) 2,5-pyridine diamine]	–	–	–	96 ± 1	43 ± 3 pourcentage	93 ± 0,2 pourcentage	99,4 pourcentage	44,0 pourcentage	99,4 pourcentage	67,4 ± 8,6 pourcentage	60,3 ± 9,1 pourcentage	74,2 ± 3,8 pourcentage	0,33 ± 0,06** cm3
